In patent US4119629A, “Certain azaphenoxathiin compounds” (priority 1977, dated 1978):
Like-named read-outs stand apart in the source and are kept apart here.

Key:
[1] = format: in vivo, mice; conditions: 50 mg/kg
From the text: The following table illustrates utility of the compounds of the present invention as weight control agents.
Table of Weight Control Observed
With 1,5-bis(thiophenyl)-2-nitrobenzene
Animal (mg/kg) (grams) Date

[2] = Toxicity, survival time after im injection in DMSO; format: in vivo, mice
From the text: The following represents initial test observations for one of the above identified compounds.
Table of Toxicity Data for
1,5-bis(thiophenyl)-2-nitrobenzene* (2e)
Animal** (mg/kg im DMSO) Time (Days)
**All mice were tail-coded.
***Sacrificed at the end of 14 days.

[3] = LD50 studies of 7-chloro-1-azaphenoxathiin; format: in vivo
From the text: Table of LD50 Studies of 7-chloro-1-azaphenoxathiin
Test Animal Survival Time
Group* Dose (mg/kg) (Days)
*All animals were tail-coded
**LD50; dependent on the toleration of the animal for this drug

[4] = Hexobarbital sleeping time potentiation; format: in vivo; conditions: control 58.5
Experimental: (§1) Further, the action of the drug at 200 mg/kg in the spontaneous motor activity test tends to reverse with greater activity observed (47%). An additional set of data was also acquired for this compound which was barbiturate induced sleeping time potentiation. […] Thus, compounds that may be prepared in accordance with Equation 3 above are: […]
(§2) Table of Barbiturate Sleeping Time Potentiation With
(§3) 7-Chloro-1-Azaphenoxathiin
Hexobarbital Sleeping Time Potentiation
(§4) Dose (mg/kg) Mean (min) SE (min)

[5] = Barbiturate induced sleeping time potentiation; format: in vivo; conditions: in all cases
Experimental: as §1

[6] = Barbital sleeping time potentiation; format: in vivo; conditions: control 125.4
Experimental: as §1, §2, §3, §4
Barbital Sleeping Time Potentiation

[7] = Spontaneous and forced motor activity tests; format: in vivo
Experimental: as §1

[8] = Effect on body temp., heart rate, and respiration in rats; format: in vivo; conditions: 100 mg/kg i.p.
Experimental: TABLE OF EFFECT OF 7-CHLORO-1-AZAPHENOXATHIIN 100 MG/KG I.P. ON
BODY TEMP., HEART RATE, AND RESPIRATION IN RATS

[9] = Strychnine anticonvulsant study; format: in vivo; conditions: for Average Onset Time: saline control 3.10
From the text: TABLE OF STRYCHNINE ANTICONVULSANT STUDY
WITH 7-NITRO-1-AZAPHENOXATHIIN
Test Group Time (min) Deviation Error
______________________________________

[10] = Preliminary toxicity testing of 7-nitro-1-azaphenoxathiin
Experimental: These tests were run simultaneously using chloropromazine as a control. This compound was tested at doses of 50, 100 and 200 mg/kg.

Work on `O=[N+]([O-])c1ccc(Sc2ccccc2)cc1Sc1ccccc1` [1,5-bis(thiophenyl)-2-nitrobenzene] yielded a Weight ([1]; animal #5, 7/16/77) of 16.0 grams, a Weight ([1]; animal #5, 7/17/77) of 15.8 grams and a Weight ([1]; animal #5, 7/18/77) of 16.0 grams. It also gave a Weight ([1]; animal #5, 7/19/77) of 16.0 grams, a Weight ([1]; animal #5, 7/20/77) of 16.0 grams and a Weight ([1]; animal #5, 7/21/77) of 16.0 grams. For the same compound, the “death resulting from decreased CNS activity” value [2] was “death at higher doses”.

In the case of `Clc1ccc2c(c1)Oc1cccnc1S2` [7-chloro-1-azaphenoxathiin], the “Survival Time” value ([3]; 50 mg/kg, group 1, 14-day test period) is reported as 14 days, the “Survival Time” value ([3]; 100 mg/kg, group 2, 14-day test period) is reported as 14 days and the “Survival Time” value ([3]; 250 mg/kg, group 3, 14-day test period) is reported as 14 days. For the same compound, the “Survival Time” value ([3]; 500 mg/kg, group 4, 14-day test period) was 14 days, the “survival of the 14-day test period” value ([3]; 750 mg/kg) was “several lived the 14-day test period” and the “Survival Time” value ([3]; 750 mg/kg, group 5, LD50, dependent on the toleration of the animal) was 0 to 14 days. The “Survival Time” value ([3]; 1,000 mg/kg, group 6) was 0 days, the “Survival Time” value ([3]; 1,500 mg/kg, group 7) was 0 days and the LD50 ([3]; in vivo) was about 750 mg/kg. The tolerability ([3]; test animals) was “generally well tolerated”, the “Hexobarbital Sleeping Time, Mean” value ([4]; 25 mg/kg) was 79.8 min and the “Hexobarbital Sleeping Time, Mean” value ([4]; 50 mg/kg, p<0.05) was 81.9 min. For the same compound, the “Hexobarbital Sleeping Time, Mean” value ([4]; 100 mg/kg, p<0.05) was 104.4 min, the “barbiturate induced sleeping times” value [5] was “prolongation of barbiturate induced sleeping times” and the “Barbital Sleeping Time, Mean” value ([6]; 25 mg/kg) was 120.6 min. For the same compound, the “Barbital Sleeping Time, Mean” value ([6]; 50 mg/kg) was 155.1 min, the “Barbital Sleeping Time, Mean” value ([6]; 100 mg/kg) was 179.5 min and the “greater activity observed in the spontaneous motor activity test” value ([7]; 200 mg/kg, action tends to reverse) was 47%. For the same compound, the “potency in both spontaneous and forced motor activity tests” value ([7]; compared with 7-nitro-1-azaphenoxathiin) was “somewhat more potent than the former”, the H.R. ([8]; time 0, N 5) was 331.2 Beats/Min and the Resp ([8]; time 0, N 5) was 120.8 Breath/Min. The Temp ([8]; time 0, N 5) was 38.5 °C, the H.R. ([8]; time 30, N 4) was 314.0 Beats/Min and the “H.R. Δ From Veh” value ([8]; time 30, N 4) was -34.0 Beats/Min. The Resp ([8]; time 30, N 4) was 101.2 Breath/Min, the “Resp Δ From Veh” value ([8]; time 30, N 4) was -33.1 Breath/Min and the Temp ([8]; time 30, N 4) was 37.6 °C. The “Temp Δ From Veh” value ([8]; time 30, N 4) was -0.4 °C, the H.R. ([8]; time 60, N 4) was 288.0 Beats/Min and the “H.R. Δ From Veh” value ([8]; time 60, N 4) was -36.0 Beats/Min. For the same compound, the Resp ([8]; time 60, N 4) was 79.7 Breath/Min, the “Resp Δ From Veh” value ([8]; time 60, N 4) was -65.9 Breath/Min and the Temp ([8]; time 60, N 4) was 36.8 °C. The “Temp Δ From Veh” value ([8]; time 60, N 4) was -2.4 °C, the H.R. ([8]; time 120, N 4) was 273.0 Beats/Min and the “H.R. Δ From Veh” value ([8]; time 120, N 4) was -55.0 Beats/Min. For the same compound, the Resp ([8]; time 120, N 4) was 70.0 Breath/Min, the “Resp Δ From Veh” value ([8]; time 120, N 4) was -49.2 Breath/Min and the Temp ([8]; time 120, N 4) was 35.8 °C. The “Temp Δ From Veh” value ([8]; time 120, N 4) was -2.4 °C, the H.R. ([8]; time 180, N 4) was 270.0 Beats/Min and the “H.R. Δ From Veh” value ([8]; time 180, N 4) was -66.0 Beats/Min. For the same compound, the Resp ([8]; time 180, N 4) was 78.2 Breath/Min, the “Resp Δ From Veh” value ([8]; time 180, N 4) was -41.8 Breath/Min and the Temp ([8]; time 180, N 4) was 35.4 °C. The “Temp Δ From Veh” value ([8]; time 180, N 4) was -3.4 °C, the H.R. ([8]; time 240, N 4) was 289.0 Beats/Min and the “H.R. Δ From Veh” value ([8]; time 240, N 4) was -51.0 Beats/Min. The Resp ([8]; time 240, N 4) was 82.3 Breath/Min, the “Resp Δ From Veh” value ([8]; time 240, N 4) was -33.0 Breath/Min and the Temp ([8]; time 240, N 4) was 35.0 °C. The “Temp Δ From Veh” value ([8]; time 240, N 4) was -3.6 °C.

In the case of `O=[N+]([O-])c1ccc2c(c1)Oc1cccnc1S2` [7-nitro-1-azaphenoxathiin], the “activity as an anticonvulsant” value [9] is reported as “essentially no activity”, the “Average Onset Time” value ([9]; 50 mg/kg) is reported as 3.21 min and the “Average Onset Time” value ([9]; 100 mg/kg) is reported as 3.06 min. The “Average Onset Time” value ([9]; 200 mg/kg) was 3.06 min and the toxicity [10] was “surprisingly low toxicity”.
